In PubChem BioAssay AID180 (DTP/NCI, 2004) one finds T/C data, which are given here for eleven molecules.

“And” between values parts separate entries of the source, which are not always exact repeats. Equal values may be shown once.

The test has as its system BDF1 mice, Adenocarcinoma 755 s.c., tumor weight T/C. Nature of the test: NCI In Vivo Anticancer Drug Screen. Data for tumor model Adenocarcinoma 755 (subcutaneous) in B6D2F1 (BDF1) mice. The settings on record: endpoint: mean tumor weight, higher = larger tumour. The procedure, abridged: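 Values express treated (T) relative to vehicle-dosed control (C) animals, based on survival or tumour size measured after compound treatment of mice bearing a transplanted tumour.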

[1] abbreviates: dose: 50.0 mg/kg/injection, schedule: Q01DX011 (ip), vehicle: carboxymethylcellulose (CMC).
Where [2] appears, read: dose: 100.0 mg/kg/injection, schedule: Q01DX011 (ip), vehicle: carboxymethylcellulose (CMC).
Setting [3] is: dose: 200.0 mg/kg/injection, schedule: Q01DX011 (ip), vehicle: carboxymethylcellulose (CMC).

As for `C=C(C)[C@H]1Cc2c(ccc3c2O[C@@H]2COc4cc(OC)c(OC)cc4[C@@H]2C3=O)O1`, the T/C is 93 % of control (dose: 0.5 mg/kg/injection, schedule: Q01DX011 (ip), vehicle: water); 96 % of control (dose: 0.75 mg/kg/injection, schedule: Q01DX011 (ip), vehicle: water); 74 % of control (dose: 1.0 mg/kg/injection, schedule: Q01DX011 (ip), vehicle: water); 88 % of control (dose: 2.0 mg/kg/injection, schedule: Q01DX011 (ip), vehicle: water).
In the case of `CC(=O)[C@@]1(O)[C@H](C)C[C@H]2[C@@H]3C=C(C)C4=Cc5c(cnn5-c5ccccc5)C[C@]4(C)[C@H]3[C@@H](O)C[C@@]21C`, the T/C by setting is: (dose: 0.01 mg/kg/injection, schedule: Q01DX011 (sc), vehicle: steriod suspending solution) 70 % of control; (dose: 0.03 mg/kg/injection, schedule: Q01DX011 (sc), vehicle: steriod suspending solution) 43 % of control; (dose: 0.05 mg/kg/injection, schedule: Q01DX011 (sc), vehicle: steriod suspending solution) 41 % of control; (dose: 0.2 mg/kg/injection, schedule: Q01DX011 (sc), vehicle: steriod suspending solution) 27 % of control and 44 % of control; (dose: 0.3 mg/kg/injection, schedule: Q01DX011 (sc), vehicle: steriod suspending solution) 14 % of control and 28 % of control; (dose: 0.5 mg/kg/injection, schedule: Q01DX011 (sc), vehicle: steriod suspending solution) 33 % of control. Further, the T/C runs as follows: (dose: 30.0 micrograms/kg/injection, schedule: Q01DX011 (ip), vehicle: saline) 115 % of control; (dose: 60.0 micrograms/kg/injection, schedule: Q01DX011 (ip), vehicle: saline) 115 % of control; (dose: 120.0 micrograms/kg/injection, schedule: Q01DX011 (ip), vehicle: saline) 105 % of control.
In the case of `CN(C)C1C(=O)C(C(=O)NCNC(CCS(C)=O)C(=O)O)=C(O)C2(O)C(=O)C3=C(O)c4c(O)cccc4C(C)(O)C3CC12` (stereo unspecified), the T/C (dose: 200.0 mg/kg/injection, schedule: Q01DX011 (ip), vehicle: saline) is 68 % of control.
For `N[C@@H](Cc1ccc(N(CCCl)CCCl)cc1)C(=O)O`, the T/C runs as follows: (dose: 0.31 mg/kg/injection, schedule: Q01DX011 (ip), vehicle: carboxymethylcellulose (CMC)) 66 % of control; (dose: 0.62 mg/kg/injection, schedule: Q01DX011 (ip), vehicle: carboxymethylcellulose (CMC)) 101 % of control; (dose: 1.25 mg/kg/injection, schedule: Q01DX011 (ip), vehicle: carboxymethylcellulose (CMC)) 59 % of control; (dose: 2.5 mg/kg/injection, schedule: Q01DX011 (ip), vehicle: carboxymethylcellulose (CMC)) 29 % of control.
Take `COC(C(=O)C(O)C(C)O)C1Cc2cc3cc(OC4CC(OC(C)=O)C(OC5CC(O)C(OC)C(C)O5)C(C)O4)cc(O)c3c(O)c2C(=O)C1OC1CC(OC2CC(OC3CC(C)(O)C(OC(=O)C(C)C)C(C)O3)C(O)C(C)O2)C(O)C(C)O1` (stereo unspecified): the T/C runs as follows: (dose: 0.02 mg/kg/injection, schedule: Q01DX011 (ip), vehicle: carboxymethylcellulose (CMC)) 93 % of control; (dose: 0.04 mg/kg/injection, schedule: Q01DX011 (ip), vehicle: carboxymethylcellulose (CMC)) 93 % of control; (dose: 0.08 mg/kg/injection, schedule: Q01DX011 (ip), vehicle: carboxymethylcellulose (CMC)) 52 % of control; (dose: 0.15 mg/kg/injection, schedule: Q01DX011 (ip), vehicle: saline) 114 % of control; (dose: 0.16 mg/kg/injection, schedule: Q01DX011 (ip), vehicle: carboxymethylcellulose (CMC)) 14 % of control and 39 % of control; (dose: 0.33 mg/kg/injection, schedule: Q01DX011 (ip), vehicle: saline) 66 % of control. The T/C was 54 % of control (dose: 0.66 mg/kg/injection, schedule: Q01DX011 (ip), vehicle: saline); 8 % of control and 11 % of control (dose: 1.25 mg/kg/injection, schedule: Q01DX011 (ip), vehicle: saline); 2 % of control and 3 % of control (dose: 2.5 mg/kg/injection, schedule: Q01DX011 (ip), vehicle: saline).
Turning to `O=C(NP(=O)(N1CC1)N1CC1)OCc1ccccc1`, the T/C was 68 % of control (dose: 0.38 mg/kg/injection, schedule: Q01DX011 (ip), vehicle: saline); 35 % of control (dose: 0.75 mg/kg/injection, schedule: Q01DX011 (ip), vehicle: saline); 53 % of control (dose: 1.5 mg/kg/injection, schedule: Q01DX011 (ip), vehicle: saline); 74 % of control (dose: 2.25 mg/kg/injection, schedule: Q01DX011 (ip), vehicle: other); 115 % of control (dose: 2.25 mg/kg/injection, schedule: Q01DX011 (ip), vehicle: saline); 18 % of control and 35 % of control (dose: 3.0 mg/kg/injection, schedule: Q01DX011 (ip), vehicle: saline). The T/C runs as follows: (dose: 4.5 mg/kg/injection, schedule: Q01DX011 (ip), vehicle: other) 83 % of control; (dose: 4.5 mg/kg/injection, schedule: Q01DX011 (ip), vehicle: saline) 98 % of control; (dose: 6.0 mg/kg/injection, schedule: Q01DX011 (ip), vehicle: saline) 18 % of control; (dose: 9.0 mg/kg/injection, schedule: Q01DX011 (ip), vehicle: other) 52 % of control; (dose: 9.0 mg/kg/injection, schedule: Q01DX011 (ip), vehicle: saline) 56 % of control; (dose: 12.0 mg/kg/injection, schedule: Q01DX011 (ip), vehicle: saline) 2 % of control. Besides, the T/C (dose: 18.0 mg/kg/injection, schedule: Q01DX011 (ip), vehicle: other) is 12 % of control; the T/C (dose: 18.0 mg/kg/injection, schedule: Q01DX011 (ip), vehicle: saline) is 29 % of control; the T/C (dose: 24.0 mg/kg/injection, schedule: Q01DX011 (ip), vehicle: saline) was 1 % of control.
For `COc1ccc(C(=O)OCC2OC(n3cnc4c(=S)nc(N)[nH]c43)C(OC(=O)c3ccc(OC)cc3)C2OC(=O)c2ccc(OC)cc2)cc1` (stereo unspecified), the T/C is, setting by setting: (dose: 25.0 mg/kg/injection, schedule: Q01DX011 (ip), vehicle: carboxymethylcellulose (CMC)) 88 % of control; under setting [1], 107 % of control; under setting [2], 48 % of control; under setting [3], 7 % of control.
Consider `O=C(Nc1ccc(C2=NCCCN2)cc1)c1ccc(NC(=O)c2ccc(C3=NCCCN3)cc2)cc1`, for which the T/C reads like this: (dose: 2.0 mg/kg/injection, schedule: Q01DX011 (ip), vehicle: carboxymethylcellulose (CMC)) 89 % of control; (dose: 4.0 mg/kg/injection, schedule: Q01DX011 (ip), vehicle: carboxymethylcellulose (CMC)) 63 % of control; (dose: 8.0 mg/kg/injection, schedule: Q01DX011 (ip), vehicle: carboxymethylcellulose (CMC)) 53 % of control.
Take `CCCCNc1nc(N)nc(Nc2ccc(Br)cc2)c1N=O`: the T/C reads like this: under setting [1], 18 % of control; (dose: 50.0 mg/kg/injection, schedule: Q01DX011 (ip), vehicle: methylcellulose (MC)) 46 % of control; under setting [2], 30 % of control; (dose: 100.0 mg/kg/injection, schedule: Q01DX011 (ip), vehicle: methylcellulose (MC)) 44 % of control; under setting [3], 53 % of control; (dose: 200.0 mg/kg/injection, schedule: Q01DX011 (ip), vehicle: methylcellulose (MC)) 40 % of control. Besides, the T/C is, setting by setting: (dose: 400.0 mg/kg/injection, schedule: Q01DX011 (ip), vehicle: methylcellulose (MC)) 47 % of control; (dose: 800.0 mg/kg/injection, schedule: Q01DX011 (ip), vehicle: carboxymethylcellulose (CMC)) 23 % of control.
For the molecule `NC(=O)c1ccc(NC(=O)/C=C/C(=O)Nc2ccc(C(N)=O)cn2)nc1`, the T/C is, setting by setting: (dose: 0.47 mg/kg/injection, schedule: Q01DX011 (ip), vehicle: carboxymethylcellulose (CMC)) 75 % of control; (dose: 0.94 mg/kg/injection, schedule: Q01DX011 (ip), vehicle: carboxymethylcellulose (CMC)) 69 % of control; (dose: 1.87 mg/kg/injection, schedule: Q01DX011 (ip), vehicle: carboxymethylcellulose (CMC)) 28 % of control.
In the case of `CC(=O)OCC1OC(n2cnc3c(=O)[nH]cnc32)C(OC(C)=O)C1OC(C)=O` (stereo unspecified), the T/C was 55 % of control (dose: 30.0 mg/kg/injection, schedule: Q01DX011 (ip), vehicle: carboxymethylcellulose (CMC)); 65 % of control (dose: 60.0 mg/kg/injection, schedule: Q01DX011 (ip), vehicle: carboxymethylcellulose (CMC)); 80 % of control (dose: 120.0 mg/kg/injection, schedule: Q01DX011 (ip), vehicle: carboxymethylcellulose (CMC)); 67 % of control (dose: 240.0 mg/kg/injection, schedule: Q01DX011 (ip), vehicle: carboxymethylcellulose (CMC)); 110 % of control (dose: 400.0 mg/kg/injection, schedule: Q01DX011 (ip), vehicle: carboxymethylcellulose (CMC)); 117 % of control (dose: 600.0 mg/kg/injection, schedule: Q01DX011 (ip), vehicle: carboxymethylcellulose (CMC)).
